Test system: rice blast fungi
Assay type: in vivo, Pyricularia grisea

| Structure (SMILES) | Inhibiting Ratio (%) (at 250 ppm) |
| --- | --- |
| Cl.Cn1c(CC(=O)Nc2ccc([N+](=O)[O-])cc2)csc1=Nc1ccc(OC(F)(F)F)cc1 [Compound 176, 2-(4-trifluoromethoxyphenylimino)-3-methyl-4-[N-(4-nitrophenyl)carbamoylmethyl]-4-thiazoline hydrochloride] | 96% |
| CC(C)Oc1cc(N=c2scc(CC(=O)Nc3ccc(Br)cc3)n2C)c(F)cc1Cl.Cl [Compound 185, 2-(4-chloro-5-isopropoxy-2-fluorophenylimino)-3-methyl-4-[N-(4-bromophenyl)carbamoylmethyl]-1,3-thiazol-4-ine hydrochloride] | 97% |
| Cl.Cn1c(CC(=O)Nc2ccc(OC(F)(F)F)cc2)csc1=Nc1ccc(F)cc1F [Compound 192, 2-(2,4-difluorophenylimino)-3-methyl-4-[N-(4-trifluoromethoxyphenyl)carbamoylmethyl]-1,3-thiazol-4-ine hydrochloride] | 92% |
| COc1ccc(NC(=O)Cc2csc(=Nc3ccc(C)cc3C)n2C)cc1.Cl [Compound 196, 2-(2,4-dimethylphenylimino)-3-methyl-4-[N-(4-methoxyphenyl)carbamoylmethyl]-1,3-thiazol-4-ine hydrochloride] | 92% |
| COc1ccc(NC(=O)Cc2csc(=Nc3cc(C)ccc3OC)n2C)cc1.Cl [Compound 198, 2-(2-methoxy-5-methylphenylimino)-3-methyl-4-[N-(4-methoxyphenyl)carbamoylmethyl]-1,3-thiazol-4-ine hydrochloride] | 95% |
| COc1ccc(NC(=O)Cc2csc(=Nc3ccc(Cl)cc3F)n2C)cc1.Cl [Compound 207, 2-(4-chloro-2-fluorophenylimino)-3-methyl-4-[N-(4-methoxyphenyl)carbamoylmethyl]-1,3-thiazol-4-ine hydrochloride] | 93% |
| COc1ccc(NC(=O)Cc2csc(=Nc3cc(OC(C)C)c(Cl)cc3F)n2C)cc1.Cl [Compound 208, 2-(4-chloro-5-isopropoxy-2-fluorophenylimino)-3-methyl-4-[N-(4-methoxyphenyl)carbamoylmethyl]-1,3-thiazol-4-ine hydrochloride] | 97% |
| COc1ccc(NC(=O)Cc2csc(=Nc3ccc(OC(F)(F)F)cc3)n2C)cc1.Cl [Compound 209, 2-(4-trifluoromethoxyphenylimino)-3-methyl-4-[N-(4-methoxyphenyl)carbamoylmethyl]-1,3-thiazol-4-ine hydrochloride] | 97% |
| Cl.Cn1c(CC(=O)Nc2ccc(C#N)cc2)csc1=Nc1ccc(OC(F)(F)F)cc1 [Compound 215, 2-(4-trifluoromethoxyphenylimino)-3-methyl-4-[N-(4-cyanophenyl)carbamoylmethyl]-4-thiazoline hydrochloride] | 93% |
| CCCCc1ccc(N=c2scc(CC(=O)Nc3ccc(C#N)cc3)n2C)cc1.Cl [Compound 221, 2-[4-(n-butyl)phenylimino]-3-methyl-4-[N-(4-cyanophenyl)carbamoylmethyl]-4-thiazoline hydrochloride] | 87% |
| CC(C)Oc1cc(N=c2scc(CC(=O)Nc3ccc(C#N)cc3)n2C)c(F)cc1Cl.Cl [Compound 226, 2-(4-chloro-5-isopropoxy-2-fluorophenylimino)-3-methyl-4-[N-(4-cyanophenyl)carbamoylmethyl]-4-thiazoline hydrochloride] | 92% |
| Cc1ccc(N=c2scc(CC(=O)Nc3ccc(C)c(Cl)c3)n2C)c(C)c1.Cl [Compound 227, 2-(2,4-dimethylphenylimino)-3-methyl-4-[N-(3-chloro-4-methylphenyl)carbamoylmethyl]-4-thiazoline hydrochloride] | 97% |
| Cc1ccc(NC(=O)Cc2csc(=Nc3ccc(C#N)cc3)n2C)cc1Cl.Cl [Compound 228, 2-(4-cyanophenylimino)-3-methyl-4-[N-(3-chloro-4-methylphenyl)carbamoylmethyl]-4-thiazoline hydrochloride] | 97% |
| Cc1ccc(NC(=O)Cc2csc(=Nc3ccc(Br)cc3)n2C)cc1Cl.Cl [Compound 229, 2-(4-bromophenylimino)-3-methyl-4-[N-(3-chloro-4-methylphenyl)carbamoylmethyl]-4-thiazoline hydrochloride] | 93% |
| Cc1ccc(NC(=O)Cc2csc(=Nc3cc(Cl)cc(Cl)c3)n2C)cc1Cl.Cl [Compound 230, 2-(3,5-dichlorophenylimino)-3-methyl-4-[N-(3-chloro-4-methylphenyl)carbamoylmethyl]-4-thiazoline hydrochloride] | 93% |
| Cc1ccc(NC(=O)Cc2csc(=Nc3ccc(OC(F)(F)F)cc3)n2C)cc1Cl.Cl [Compound 231, 2-(4-trifluoromethoxyphenylimino)-3-methyl-4-[N-(3-chloro-4-methylphenyl)carbamoylmethyl]-4-thiazoline hydrochloride] | 93% |
| Cc1ccc(NC(=O)Cc2csc(=Nc3ccc(F)cc3F)n2C)cc1Cl.Cl [Compound 232, 2-(2.4-difluorophenylimino)-3-methyl-4-[N-(3-chloro-4-methylphenyl)carbamoylmethyl]-4-thiazoline hydrochloride] | 92% |
| Cc1ccc(NC(=O)Cc2csc(=Nc3ccc(Cl)cc3)n2C)cc1Cl.Cl [Compound 233, 2-(4-chlorophenylimino)-3-methyl-4-[N-(3-chloro-4-methylphenyl)carbamoylmethyl]-4-thiazoline hydrochloride] | 97% |
| Cc1ccc(NC(=O)Cc2csc(=Nc3ccccc3F)n2C)cc1Cl.Cl [Compound 235, 2-(2-fluorophenylimino)-3-methyl-4-[N-(3-chloro-4-methylphenyl)carbamoylmethyl]-4-thiazoline hydrochloride] | 92% |
| Cc1ccc(NC(=O)Cc2csc(=Nc3cccc(F)c3)n2C)cc1Cl.Cl [Compound 236, 2-(3-fluorophenylimino)-3-methyl-4-[N-(3-chloro-4-methylphenyl)carbamoylmethyl]-1,3-thiazol-4-ine hydrochloride] | 97% |
| Cc1ccc(NC(=O)Cc2csc(=Nc3ccc(F)c(Cl)c3)n2C)cc1Cl.Cl [Compound 238, 2-(3-chloro-4-fluorophenylimino)-3-methyl-4-[N-(3-chloro-4-methylphenyl)carbamoylmethyl]-1,3-thiazol-4-ine hydrochloride] | 93% |
| COc1ccc(C)cc1N=c1scc(CC(=O)Nc2ccc(C)c(Cl)c2)n1C.Cl [Compound 239, 2-(2-methoxy-5-methylphenylimino)-3-methyl-4-[N-(3-chloro-4-methylphenyl)carbamoylmethyl]-1,3-thiazol-4-ine hydrochloride] | 92% |
| Cc1ccc(NC(=O)Cc2csc(=Nc3ccc(Oc4ccccc4)cc3)n2C)cc1Cl.Cl [Compound 240, 3-methyl-2-(4-phenoxyphenylimino)-4-[N-(3-chloro-4-methylphenyl)carbamoylmethyl]-1,3-thiazol-4-ine hydrochloride] | 88% |

— patent publication US6921770B2 (priority 2000, dated 2005)
